# Counter-ions that a name gives are not always drawn.
# Columns and labels:
# [1] = biological target: T1, cholesterol side-chain cleaving enzyme (Sus scrofa, UniProt P10612); assay: Inhibitory activity against cholesterol side-chain cleaving enzyme (Pharmacological Test 2, porcine adrenal mitochondria); format: biochemical; settings: substrate 5-cholesten-3β-ol 5.0×10^-6 M, read-out: SCC-IC50
# T1 construct: porcine adrenal mitochondria; from tissue; host or cells: porcine adrenal mitochondria
# T1 sequence (P10612 40-520): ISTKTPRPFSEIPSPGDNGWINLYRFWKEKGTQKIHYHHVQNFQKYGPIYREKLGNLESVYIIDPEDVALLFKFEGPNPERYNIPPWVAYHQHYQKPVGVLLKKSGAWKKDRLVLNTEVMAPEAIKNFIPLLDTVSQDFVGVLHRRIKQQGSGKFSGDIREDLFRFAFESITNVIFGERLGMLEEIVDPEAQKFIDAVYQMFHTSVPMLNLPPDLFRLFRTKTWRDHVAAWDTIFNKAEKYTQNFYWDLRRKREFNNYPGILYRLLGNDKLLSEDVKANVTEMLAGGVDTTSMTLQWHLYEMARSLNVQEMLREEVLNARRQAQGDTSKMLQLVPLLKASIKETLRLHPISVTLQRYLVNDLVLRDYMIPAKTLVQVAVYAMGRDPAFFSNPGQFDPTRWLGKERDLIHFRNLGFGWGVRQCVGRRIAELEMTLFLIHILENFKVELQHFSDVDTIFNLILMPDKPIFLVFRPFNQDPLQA
# Experimental: Inhibitory activity against cholesterol side-chain cleaving enzyme was determined according to the method of M. Shikita and P. F. Hall [Proc. Nat. […] Briefly, the each compound to be tested was added to a reaction vial containing porcine adrenal mitochondria, [4-^14 C]5-cholesten-3β-ol (250 Bq/5 nmol) and NADPH. […] These were separated by extracting the reaction mixture with methylene-dichloride followed by purifying with thin-layer chromatography. Substrate (5-cholesten-3β-ol) and reaction product (3β-hydroxypregn-5-en-20-one) were respectively measured by a liquid scintillation counter. The measured quantity of 3β-hydroxypregn-5-en-20-one was used to determine cholesterol side-chain cleaving activity which was compared with the activity when incubated without inhibitor to calculate inhibition ratio (%).
# [2] = Acute toxicity in ICR female mice, oral (Pharmacological Test 4); settings: mouse, in vivo, suspended in distilled water with 1% hydroxypropylcellulose, observation for fourteen days
# Excerpt: The acute toxicity of the compounds of the present invention was examined by the following method.
# [3] = biological target: T2, Aromatase (Homo sapiens, UniProt P11511); assay: Aromatase inhibitory activity (Pharmacological Test 1, human placenta microsome); format: biochemical; settings: substrate 4-androsten-3,17-dione 1.0×10^-6 M, read-out: AI-IC50
# T2 construct: human placenta microsome; from tissue; host or cells: human placenta microsomes
# T2 sequence (P11511 1-503): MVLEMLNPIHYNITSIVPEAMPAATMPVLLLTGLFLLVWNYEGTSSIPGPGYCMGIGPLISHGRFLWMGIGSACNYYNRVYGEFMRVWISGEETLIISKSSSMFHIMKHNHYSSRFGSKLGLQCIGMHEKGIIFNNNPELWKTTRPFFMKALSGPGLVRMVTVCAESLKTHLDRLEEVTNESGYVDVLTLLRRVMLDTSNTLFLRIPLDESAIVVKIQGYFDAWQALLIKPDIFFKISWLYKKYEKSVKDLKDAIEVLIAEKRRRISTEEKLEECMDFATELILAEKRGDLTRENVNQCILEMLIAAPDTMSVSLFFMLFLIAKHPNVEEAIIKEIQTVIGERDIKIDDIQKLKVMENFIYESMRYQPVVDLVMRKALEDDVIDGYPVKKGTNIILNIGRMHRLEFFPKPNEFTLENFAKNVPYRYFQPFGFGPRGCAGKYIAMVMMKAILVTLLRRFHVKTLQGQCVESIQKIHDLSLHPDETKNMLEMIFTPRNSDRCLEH
# Experimental: Aromatase inhibitory activity was determined according to the method of E. A. Thompson and P. K. Siiteri [J. Biol. Chem., 249, 5364-5372 (1974)]. The each compound to be tested was added to a reaction vial containing human placenta microsome, [1β,2 β-^3 H]4-androsten-3,17-dione (3.3 kBq/500 pmol) and NADPH. […] The obtained [^3 H]H2 O was measured by a liquid scintillation counter. The measured quantity of [3H]H20 was used to determine aromatase activity, and was compared with the activity when incubated without inhibitor to calculate inhibition ratio (%).
Structure (SMILES),IC50 [1],IC50 [3],LD50 at 336 h [2]
"c1cn(-c2nc(N3CCOCC3)nc(N3CCSC3)n2)cn1 [Compound 7, 2-(1-Imidazolyl)-4-morpholino-6-(3-thiazolidinyl)-1,3,5-triazine]",72000 nM,6.6 nM,300 to 400 mg/kg
"N#CC1(c2ccccc2)CCN(c2nc(N3CCOCC3)nc(-n3ccnc3)n2)CC1 [Compound 13, 2-(4-Cyano-4-phenylpiperidino)-4-(1-imidazolyl)-6-morpholino-1,3,5-triazine]",22000 nM,9 nM,> 400 mg/kg
"c1cn(-c2nc(N3CCOCC3)nc(N3CCOCC3)n2)cn1 [Compound 16, 2-(1-Imidazolyl)-4,6-dimorpholino-1,3,5-triazine]",> 100000 nM,5.3 nM,200 to 300 mg/kg
"c1cn(-c2nc(N3CCOCC3)nc(N3CCSCC3)n2)cn1 [Compound 37, 2-(1-Imidazolyl)-4-morpholino-6-thiomorpholino-1,3,5-triazine]",> 100000 nM,11 nM,> 400 mg/kg
"c1ccc(C2CCN(c3nc(N4CCOCC4)nc(-n4ccnc4)n3)CC2)cc1 [Compound 38, 2-(1-Imidazolyl)-4-morpholino-6-(4-phenylpiperidino)-1,3,5-triazine]",23000 nM,38 nM,> 400 mg/kg
"c1cnc(N2CCN(c3nc(N4CCOCC4)nc(-n4ccnc4)n3)CC2)nc1 [Compound 44, 2-(1-Imidazolyl)-4-morpholino-6-[4-(2-pyrimidinyl)-1-piperazinyl]-1,3,5-triazine]",> 100000 nM,33 nM,–
"O=[N+]([O-])c1ccc(N2CCN(c3nc(N4CCOCC4)nc(-n4ccnc4)n3)CC2)cc1 [Compound 45, 2-(1-Imidazolyl)-4-morpholino-6-[4-(4-nitrophenyl)-1-piperazinyl]-1,3,5-triazine]",> 100000 nM,7.2 nM,–
"OC1CCN(c2nc(N3CCOCC3)nc(-n3ccnc3)n2)CC1 [Compound 46, 2-(4-Hydroxypiperidino)-4-(1-imidazolyl)-6-morpholino-1,3,5-triazine]",100000 nM,53 nM,–
"OCCC1CCCCN1c1nc(N2CCOCC2)nc(-n2ccnc2)n1 (stereo not drawn) [Compound 47, 2-[2-(2-Hydroxyethyl)piperidino]-4-(1-imidazolyl)-6-morpholino-1,3,5-triazine]",> 100000 nM,44 nM,–
"CN(c1ccc(Cl)cc1)c1nc(N2CCOCC2)nc(-n2ccnc2)n1 [Compound 55, 2-[N-(4-Chlorophenyl)-N-methylamino]-4-(1-imidazolyl)-6-morpholino-1,3,5-triazine]",26000 nM,7.7 nM,> 400 mg/kg

# More lines, main results first:
IC50 [1],IC50 [3],Structure (SMILES),LD50 at 336 h [2]
15000 nM,16 nM,"CCCCN(c1ccccc1)c1nc(-n2ccnc2)nc(-n2ccnc2)n1 [Compound 50, 2-(N-n-Butyl-N-phenylamino)-4,6-bis (1-imidazolyl)-1,3,5-triazine]",–
> 100000 nM,10 nM,"CN(c1ccc([N+](=O)[O-])cc1)c1nc(-n2ccnc2)nc(-n2ccnc2)n1 [Compound 52, 2,4-Bis(1-imidazolyl)-6-[N-methyl-N-(4-nitrophenyl)amino]-1,3,5-triazine]",–
19000 nM,8.6 nM,"CN(c1ccc(Cl)cc1)c1nc(-n2ccnc2)nc(-n2ccnc2)n1 [Compound 54, 2-[N-(4-Chlorophenyl)-N-methylamino]-4,6-bis(1-imidazolyl)-1,3,5-triazine]",–
> 100000 nM,32 nM,"CN(c1ccc(N)cc1)c1nc(N2CCOCC2)nc(-n2ccnc2)n1 [Compound 56, 2-[N-(4-Aminophenyl)-N-methylamino]-4-(1-imidazolyl)-6-morpholino-1,3,5-triazine]",–
> 100000 nM,31 nM,"Nc1ccc(N2CCN(c3nc(N4CCOCC4)nc(-n4ccnc4)n3)CC2)cc1 [hydrochloride of No. 57, Hydrochloride of 2-[4-(4-aminophenyl)-1-piperazinyl]-4-(1-imidazolyl)-6-morpholino-1,3,5-triazine]",–

# Source: patent US5489591A, “S-triazine derivative and remedy for estrogen-dependent disease containing said derivative as effective component” (Zenyaku Kogyo Kabushiki Kaisha, priority 1992, dated 1996)
